The source of these data is patent US11958861B2, “Spirocyclic lactams as JAK2 V617F inhibitors” (Incyte Corporation, priority 2021, dated 2024).

Each structure is given as a SMILES string. Structures can show the parent of a compound that is named as a salt.

The target in test [1] is T1, pseudo-kinase domain (JH2, amino-acids 536-812) of human V617F mutant JAK2 (Homo sapiens, UniProt O60674, F794H/V617F/W659A/W777A).
T1 construct: pseudo-kinase domain (JH2, amino-acids 536-812 with 3 surface mutations W659A, W777A, F794H); purchased BPS Bioscience 79498; host or cells: baculovirus expression system
T1 sequence (O60674 536-812 V617F/W659A/W777A/F794H): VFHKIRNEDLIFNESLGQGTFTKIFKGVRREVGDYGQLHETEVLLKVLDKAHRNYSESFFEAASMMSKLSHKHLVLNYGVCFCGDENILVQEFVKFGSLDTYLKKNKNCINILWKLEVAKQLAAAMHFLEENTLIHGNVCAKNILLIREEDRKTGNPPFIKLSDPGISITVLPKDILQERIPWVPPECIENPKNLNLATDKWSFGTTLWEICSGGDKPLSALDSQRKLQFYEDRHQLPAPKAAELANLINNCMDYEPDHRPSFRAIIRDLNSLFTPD
Put plainly: JAK2 LanthaScreen JH2-V617F Binding Assay. Particulars: 1 hour at 25° C. An outline of the steps:
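Serially diluted compounds are mixed with 0.26 nM protein, 50 nM fluorescent JAK2-JH2 tracer and 0.25 nM terbium-labelled streptavidin, then incubated 1 h at 25° C. LanthaScreen signal is read, and IC50 is fitted.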
In general terms: TR-FRET usually uses a lanthanide donor and a delayed reading to cut background.

Test [2] concerns the target T2, pseudo-kinase domain (JH2, amino-acids 536-812) of human Wild Type JAK2 (Homo sapiens, UniProt O60674, F794H/W659A/W777A).
T2 construct: pseudo-kinase domain (JH2, amino-acids 536-812 with 3 surface mutations W659A, W777A, F794H); purchased BPS Bioscience 79463; host or cells: baculovirus expression system
The test is described as follows: JAK2 LanthaScreen JH2-WT Binding Assay. Particulars: 1 hour at 25° C. An outline of the steps: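 Binding was measured by TR-FRET between streptavidin-Tb (0.25 nM) on biotinylated JH2 (0.145 nM) and 50 nM fluorescent tracer, with compound dose series, 1 h at 25° C; IC50 fitted.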

Test [3] addresses T3, catalytic domain (JH1, amino acids 826-1132) of human JAK2 (Homo sapiens, UniProt O60674).
T3 construct: catalytic domain (JH1, amino acids 826-1132) of human JAK2; purchased Carna Biosciences 08-445-20N; host or cells: baculovirus expression system
Put plainly: JAK2 LanthaScreen JH1 Binding Assay. Particulars: 2 hours at 25° C. In a few lines:
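Reaction held 1.5 nM biotinylated FLAG-JAK2 JH1, 50 nM tracer and 0.5 nM streptavidin-Tb in pH 7.5 Tris buffer; 2 mM ATP defined nonspecific binding.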

Test [4] has as its target T4, catalytic domain (JH1, amino acids 808-1132) of human JAK2 (Homo sapiens, UniProt O60674).
T4 construct: catalytic domain (JH1, amino acids 808-1132) of human JAK2; His (N); purchased BPS Bioscience 40450; host or cells: baculovirus expression system
The test is described as follows: JAK2 HTRF Enzyme Activity Assay. Particulars: ATP 30 μM, read-out: ENZ 30UMATP. The test is classed as biochemical. In a few lines:
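IC50 values come from a four-parameter fit of HTRF signal (Eu-PY20 antibody/streptavidin-APC, EDTA-quenched). Reaction: 0.015 nM N-His JAK2 catalytic domain (baculovirus), 500 nM biotin-peptide, 30 μM or 1 mM ATP, Tris pH 7.5 buffer, 60 min, 25° C.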

T3 sequence (O60674 826-1132): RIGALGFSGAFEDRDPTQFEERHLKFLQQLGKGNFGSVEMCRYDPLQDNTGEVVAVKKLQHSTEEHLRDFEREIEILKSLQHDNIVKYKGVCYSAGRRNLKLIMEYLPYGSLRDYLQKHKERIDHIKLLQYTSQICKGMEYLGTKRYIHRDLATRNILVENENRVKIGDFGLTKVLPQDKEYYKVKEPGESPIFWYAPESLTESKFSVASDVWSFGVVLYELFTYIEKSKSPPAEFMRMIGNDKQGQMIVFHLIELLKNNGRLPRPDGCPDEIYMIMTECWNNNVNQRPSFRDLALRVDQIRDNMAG
T4 sequence (O60674 808-1132): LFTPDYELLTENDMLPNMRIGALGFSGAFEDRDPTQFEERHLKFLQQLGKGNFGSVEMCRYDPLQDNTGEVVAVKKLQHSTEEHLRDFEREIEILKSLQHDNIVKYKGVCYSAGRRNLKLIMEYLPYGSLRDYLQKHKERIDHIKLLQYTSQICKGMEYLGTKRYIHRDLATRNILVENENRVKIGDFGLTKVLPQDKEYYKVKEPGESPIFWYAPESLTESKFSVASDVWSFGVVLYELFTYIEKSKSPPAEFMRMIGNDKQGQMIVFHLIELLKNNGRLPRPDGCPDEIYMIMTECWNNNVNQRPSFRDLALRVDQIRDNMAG
T2 sequence (O60674 536-812 W659A/W777A/F794H): as the sequence (O60674 536-812 V617F/W659A/W777A/F794H) above, with F82V counted along it

Regarding `O=C(O)C(F)(F)F.[2H]C([2H])([2H])N1C(=O)C2(CC3(CN(S(=O)(=O)CC)C3)C2)c2c1cnc1[nH]c(-c3ccc(CN4CCOCC4)cc3)c(-c3ccc(OC)cc3)c21` [Example 92, 1-(Ethylsulfonyl)-1″-(4-methoxyphenyl)-6″-(methyl-d3)-2″-(4-(morpholinomethyl)phenyl)-3″,6″-dihydro-7″H-dispiro[azetidine-3,1′-cyclobutane-3′,8″-dipyrrolo[2,3-b:3′,2′-d]pyridin]-7″-one, trifluoroacetate salt], the IC50 was at most 100 nM in test [1], at most 100 nM in test [2], over 2500 nM in test [3] and over 2500 nM in test [4].
`CCS(=O)(=O)N1CC2(C1)CC1(C2)C(=O)N(C)c2cnc3[nH]c(-c4cnn(CC(F)F)c4)c(-c4ccc5c(cnn5C)c4)c3c21` [Example 93, 2″-(1-(2,2-Difluoroethyl)-1H-pyrazol-4-yl)-1-(ethylsulfonyl)-6″-methyl-1″-(1-methyl-1H-indazol-5-yl)-3″,6″-dihydro-7″-dispiro[azetidine-3,1′-cyclobutane-3′,8″-dipyrrolo[2,3-b:3′,2′-d]pyridin]-7″-one, trifluoroacetate salt]: the IC50 was at most 100 nM in test [1], at most 100 nM in test [2], 1250 to 2500 nM in test [3] and 1250 to 2500 nM in test [4].
For the compound `CCS(=O)(=O)N1CC2(C1)CC1(C2)C(=O)N(C)c2cnc3[nH]c(-c4cnn5c4CCC5)c(-c4ccc5c(cnn5C)c4)c3c21` [Example 94, 2″-(5,6-Dihydro-4H-pyrrolo[l,2-b]pyrazol-3-yl)-1-(ethylsulfonyl)-6″-methyl-1″-(1-methyl-1H-indazol-5-yl)-3″,6″-dihydro-7″-dispiro[azetidine-3,1′-cyclobutane-3′,8″-dipyrrolo[2,3-b:3′,2′-d]pyridin]-7″-one, trifluoroacetate salt], the IC50 in test [1] is at most 100 nM; in test [2] it was at most 100 nM; in test [3], over 2500 nM; in test [4], over 2500 nM.
As for `O=C(O)C(F)(F)F.[2H]C([2H])([2H])N1C(=O)C2(CC3(CN(S(=O)(=O)CC)C3)C2)c2c1cnc1[nH]c(-c3cnn(CC)c3)c(-c3ccc(OC)cc3)c21` [Example 95, 2″-(1-Ethyl-1H-pyrazol-4-yl)-1-(ethylsulfonyl)-1″-(4-methoxyphenyl)-6″-(methyl-d3)-3″,6″-dihydro-7″H-dispiro[azetidine-3,1′-cyclobutane-3′,8″-dipyrrolo[2,3-b:3′,2′-d]pyridin]-7″-one, trifluoroacetate salt], the IC50 in test [1] is at most 100 nM; in test [2] it was at most 100 nM; in test [3], 500 to 1250 nM; in test [4] it was 500 to 1250 nM.
On to `O=C(O)C(F)(F)F.[2H]C([2H])([2H])n1ncc2cc(-c3c(-c4cnn(CC(C)(C)OC)c4)[nH]c4ncc5c(c34)C3(CC4(CN(S(=O)(=O)CC)C4)C3)C(=O)N5C)ccc21` [Example 96, 1-(Ethylsulfonyl)-2″-(1-(2-methoxy-2-methylpropyl)-1H-pyrazol-4-yl)-6″-methyl-1″-(1-(methyl-d3)-1H-indazol-5-yl)-3″,6″-dihydro-7″H-dispiro[azetidine-3,1′-cyclobutane-3′,8″-dipyrrolo[2,3-b:3′,2′-d]pyridin]-7″-one, trifluoroacetate salt], for which the IC50 in test [1] is at most 100 nM; in test [2] it was at most 100 nM; in test [3], over 2500 nM; in test [4], over 2500 nM.
On to `CCS(=O)(=O)N1CC2(C1)CC1(C2)C(=O)N(C)c2cnc3[nH]c(-c4cnn(CC5CCOCC5)c4)c(-c4ccc5c(cnn5C)c4)c3c21` [Example 97, 1-(Ethylsulfonyl)-6″-methyl-1″-(1-methyl-1H-indazol-5-yl)-2″-(1-((tetrahydro-2H-pyran-4-yl)methyl)-1H-pyrazol-4-yl)-3″,6″-dihydro-7″H-dispiro[azetidine-3,1′-cyclobutane-3′,8″-dipyrrolo[2,3-b:3′,2′-d]pyridin]-7″-one, trifluoroacetate salt], for which the IC50 in test [1] was at most 100 nM; in test [2], at most 100 nM; in test [3] it was 1250 to 2500 nM; in test [4] it was 1250 to 2500 nM.
